Results: publication PMC7154053, “Chemical, Metabolic, and Cellular Characterization of a FtsZ Inhibitor Effective Against Burkholderia cenocepacia” (Frontiers in Microbiology, 2020)
Values after ≈ are worked out from the molar mass of the structure shown. Read-outs that look alike come from different tables or passages of the source.

Tests used:
B. cenocepacia J2315 = assay: Time-lapse microscopy, single-cell analysis in microfluidic device; format: cell-based, Burkholderia cenocepacia
Protocol: B. cenocepacia J2315 was cultured over-night in Middlebrook 7H9 broth, supplemented with 10% (v/v) DS enrichment (20 g dextrose, 8.5 g sodium chloride in 1 L water) and 5% (v/v) of a casamino acids solution (10 g casamino acids in 100 ml water). Cells were diluted 10-fold in the same fresh 7H9 medium, and 5 μl of the diluted cell suspension were inoculated into a custom-made microfluidic hexa-device, as previously described (Manina et al., [2019]). Silicone tubing (0.76 mm ID) was connected to each inlet and outlet ports of the hexa-device to enable medium circulation. Two 50 ml syringes were connected to the inlet tubing, and prewarmed 7H9 medium was pumped through the microfluidic device at 15 μl/min. The outlet tubing were inserted into a waste receptacle containing bleach. […] Bacteria were imaged in phase contrast, using a UPLFLN100XO2/PH3/1.30 objective (Olympus) and a high-speed sCMOS camera, with the help of an automated epifluorescence inverted microscope (DeltaVision Elite, GE Healthcare). The microscope was equipped with an environmental chamber maintained at 37°C. Images were recorded at 20-min intervals and up to 46 h. Exposure conditions were as follows: phase 50% T, 150 ms. In each experiment, 190 XY fields were imaged. The same experimental set-up was carried out twice.
Manual segmentation of individual cells and analysis of image stacks were performed using the ImageJ 1.52a software. The Selection Brush Tools was used to draw polygons corresponding to the shape of individual cells and to extract the cell planar area (μm^2). Measurements of the cell area were repeated throughout the generation time of individual cells, to calculate the growth rate by fitting an exponential curve.
Biphasic killing represents the typical pattern of drug persistence, whereby the initial linear mortality of the population is followed by a second phase where a subpopulation of cells is able to endure inhibitory drug concentrations in the absence of genetic mutations (Van den Bergh et al., [2017]). In contrast to drug-resistant cells, which continue to replicate in the presence of the drug, drug-persistent cells either derive from pre-existing non-growing cells or slow down their growth during drug exposure, and their progeny is killed with kinetics similar to that of the initial population (Van den Bergh et al., [2017]; Balaban et al., [2019]). […] To examine the C109 killing dynamics of B. cenocepacia at the single-cell level, we carried out a time-lapse microscopy experiment, divided into several steps. Wild type B. cenocepacia J2315 cells were first seeded into a microfluidic device (Manina et al., [2019]), and perfused with prewarmed 7H9 medium for 3 h, to allow the cells to adapt to the microfluidic environment. […] Cells were then perfused with C109-free 7H9 medium for 12 h, enabling the recovery and expansion of surviving cells. […] During the time-lapse imaging, cells were monitored every 20 min for a total of 46 h. The total number of cells, the single-cell area, and the number of division and lysis events were measured during each step of the experiment.

PAO1-FtsZ = biological target: T1, PAO1-FtsZ (Pseudomonas aeruginosa, UniProt P47204); assay: FtsZ GTPase activity assay (kinetics and inhibition); format: biochemical; conditions: read-out: IC50 toward PAO1-FtsZ
T1 construct: His-tag of pET-28a followed by PreScission site (His-tag inferred from the vector; the site is encoded in the forward primer) (N); made in house; host or cells: E. coli BL21(DE3)
Protocol: The gene ftsZ (BCAL3457) was amplified from B. cenocepacia FCF19 using the primers pet28presFtsZfor (5′-[…]-3′) and pet28ftsZrev (5′-[…]-3′). The gene ftsZ of P. aeruginosa was amplified from the genomic DNA using the primers ftsZPAOfor28a (5′-[…] 3′) and ftsZPAOrev28a (5′-[…]-3′). The PCR products were cloned into the pET-28a vector (Novagen) using the In-Fusion HD Cloning kit (TaKaRa), according to the manufacturer's instructions.
All the recombinant FtsZ proteins were expressed at 20°C overnight in E. coli BL21(DE3) cells, upon induction with 0.5 mM IPTG, and purified using the same protocol assessed for the wild-type B. cenocepacia FtsZ (Hogan et al., [2018]).
GTPase enzyme activity was determined using a pyruvate kinase/L-lactic dehydrogenase (PK/LDH) spectrophotometric coupled assay (Ingerman and Nunnari, [2005]). The assays were performed at 30°C, in a reaction mixture containing […] Hepes pH 7.5, 5 mM MgCl2, 5 mM KCl, 10 U PK/LDH, 0.25 mM NADH, 0.25 mM PEP, and 5–10 μM FtsZ, and initiated by the addition of 0.5 mM GTP. Alternatively, GTPase activity was determined by measuring the release of phosphate using the malachite green assay (Baykov et al., [1988]).
Steady-state kinetic analysis was performed by assaying the activity at different GTP concentrations and parameters determined by fitting the data to the Michaelis-Menten equation using Origin 8 software. […]

E. coli ATCC 25922 = assay: MIC, 2-fold microdilution, resazurin method; format: cell-based; conditions: Escherichia coli, ATCC25922
Protocol: (§1) Burkholderia cenocepacia strains, Escherichia coli ATCC 25922, Pseudomonas aeruginosa PAO1, and Staphylococcus aureus ATCC 25923 were grown in Luria-Bertani (LB) medium (Difco), if not differently specified, with shaking at 200 rpm, or on LB agar, at 37°C.
(§2) The microtiter plates were incubated at 37°C for 48 (for B. cenocepacia) or 24 h (for all the other strains) and growth was determined by the resazurin method (Martin et al., [2006]). A solution of resazurin sodium salt (Sigma Aldrich) was prepared at 0.01% in distilled water and filter-sterilized. Thirty microliter of resazurin solution were added to each well after 1 or 2 days of incubation at 37°C, and the microtiters were re-incubated at the same temperature for 4 h. The MIC was defined as the lowest concentration of the drug that prevented a change in color from blue to pink, which indicates bacterial growth.
(§3) Three independent biological replicates were used for each MIC determination.

P. aeruginosa PAO1 = assay: MIC, 2-fold microdilution, resazurin method; format: cell-based; conditions: Pseudomonas aeruginosa, PAO1
Protocol: as §1, §2, §3

B. cenocepacia = assay: Resazurin-based assay of BcNR reaction mixtures; format: cell-based, Burkholderia cenocepacia; conditions: BcNR reactions with 1 mM C109, with or without NADPH; C109 result: in the absence of NADPH
Text: To assess whether the resulting BcNR reduction product could inhibit B. cenocepacia growth, we carried out a resazurin-based assay.

T1 sequence (P47204 2-316): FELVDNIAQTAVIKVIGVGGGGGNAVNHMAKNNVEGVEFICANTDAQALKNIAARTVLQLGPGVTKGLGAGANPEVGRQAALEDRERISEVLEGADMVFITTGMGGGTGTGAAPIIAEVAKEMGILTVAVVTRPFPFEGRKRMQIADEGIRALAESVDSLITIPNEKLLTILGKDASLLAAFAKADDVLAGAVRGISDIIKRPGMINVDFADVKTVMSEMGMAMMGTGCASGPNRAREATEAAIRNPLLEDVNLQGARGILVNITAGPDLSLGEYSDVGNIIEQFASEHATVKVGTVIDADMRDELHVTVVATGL

Compound: COC(=O)CSc1ccc2nsnc2c1[N+](=O)[O-] [C109, methyl [(4-nitro-2,1,3-benzothiadiazol-5-yl)thio]acetate]
- elongated cells that resumed normal growth during washout (possible persistent cells) (B. cenocepacia J2315; 8 of 3,000 elongated cells formed during first exposure): 0.27%
- cells died from lysis, first treatment (B. cenocepacia J2315; C109 100 μg/ml (12.5X-MIC), 4 h): 70%
- cells still able to grow with considerable filamentation, first treatment (B. cenocepacia J2315; C109 12.5X-MIC, 4 h): 3.5%
- cells that stopped to divide (sensitive), second treatment (B. cenocepacia J2315; C109 12.5X-MIC, 24 h): 94%
- decline in cell population, second treatment (B. cenocepacia J2315; C109 12.5X-MIC, 24 h): 92%
- cells with elongated phenotype, second treatment (B. cenocepacia J2315; C109 12.5X-MIC, 24 h, of the total cell number): ~6%
- filamentous cells that started again to divide during washout (B. cenocepacia J2315; C109 washout with fresh medium): 30%
- increase of cell area, cells dying by lysis (B. cenocepacia J2315; first treatment): 2 fold
- increase of cell area, filamentous cells (B. cenocepacia J2315; first treatment): up to 5 fold
- increase of cell area, elongated cells (B. cenocepacia J2315; second treatment, 8–10 μm^2): up to 10 fold
- IC50 (PAO1-FtsZ): 3.5 ± 1.9 µM
- MIC (E. coli ATCC 25922; LB, 24 h, read-out: MIC E. coli 25922): 8 µg/mL (≈ 28 µM)
- MIC (E. coli ATCC 25922; Supplementary Table 1, read-out: MIC (µg/ml) E. coli 25922): 8 µg/mL (≈ 28 µM)
- MIC (P. aeruginosa PAO1; LB, 24 h, read-out: MIC P. aeruginosa PAO1): 128 µg/mL (≈ 449 µM)
- MIC (P. aeruginosa PAO1; Supplementary Table 1, read-out: MIC (µg/ml) P. aeruginosa PAO1): 128 µg/mL (≈ 449 µM)
- activity against B. cenocepacia growth (B. cenocepacia): still active
